Where no end group is shown, it is not given here.
Assays:
[1] = target: T1, human B2 bradykinin receptor (Homo sapiens, UniProt P30411); test: Competition binding against 100 pM [3H]BK at the cloned human B2 receptor (COS-7)
T1 construct: placing the entire B2 clone under the control of the CMV promoter; expressed in transfected cells
T1 sequence (P30411 1-364 isoform P30411-2): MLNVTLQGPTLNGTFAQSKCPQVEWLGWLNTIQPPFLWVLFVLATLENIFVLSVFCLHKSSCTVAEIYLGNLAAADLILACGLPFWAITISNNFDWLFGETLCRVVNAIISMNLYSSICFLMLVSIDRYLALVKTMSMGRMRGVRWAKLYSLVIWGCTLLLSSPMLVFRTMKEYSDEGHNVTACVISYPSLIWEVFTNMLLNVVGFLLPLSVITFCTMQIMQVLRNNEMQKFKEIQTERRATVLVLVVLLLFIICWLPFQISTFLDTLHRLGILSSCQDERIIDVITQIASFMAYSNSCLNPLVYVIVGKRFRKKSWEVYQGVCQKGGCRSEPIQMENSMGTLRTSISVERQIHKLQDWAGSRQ
Procedure: (§1) In order to enable expression of the cDNA that encodes for the B2 bradykinin receptor, COS-7 cells were transfected using LIPOFECTIN (BRL, Gaithersburg, Md.) with 50ug/10^7 cells of the B2 receptor cDNA subcloned into the eukaryotic expression vector pcDNA I-Neo (Invitrogen). Cells were then harvested after 72 hours and the membranes containing the expressed receptor protein were prepared by scraping the cells in phosphate buffered saline solution and centrifuging for ten minutes at 500× g. The cell pellet was then resuspended and homogenized with a Polytron in 20 mM N-tris(hydroxymethyl)methyl-2-aminoethane sulfonic acid (TES,pH 6.8 at room temperature) buffer containing 1 mM 1, 10 phenanthroline. The homogenate was then centrifuged for ten minutes at 500 × g. The final membrane pellet was resuspended in assay buffer (TES plus 0.1% protease free bovine serum albumin, 5 uM MK-422 (enalaprilat; Gross et al., 1981) and 140 ug/ml bacitracin using a motor-driven teflon-glass tissue homogenizer. Protein determination was performed by the method of Bradford using bovine IgG as the standard. See Bradford, M.A. Anal. Biochem. 72, 248-254 (1976).
Binding assays were then performed to determine receptor antagonist or agonist interaction. The assays utilized in the instant invention follow the method of Manning et al., J. Pharmacol. Exp. Ther., 237, 504-512 (1986). […] (BRANDEL, Gaithersburg, Md.). The tubes were rinsed two times with 4 ml ice-cold […] and the filter bound radioactivity was quantitated by liquid scintillation counting. […] The competition and saturation experiments were analyzed using the EBDA program of McPherson. See McPherson, G.A. J Pharmacol. Methods 14, 213-218 (1985).

[2] = test system: rat vas deferens; details: cited from earlier work
[3] = test system: CPAE cells (bovine pulmonary artery endothelial cells); details: cited from earlier work
[4] = test system: Swiss 3T3 fibroblasts; details: cited from earlier work
[5] = target: T2, mouse B2 bradykinin receptor (Mus musculus, UniProt P32299); test: Competition binding using 100 pM [3H]BK at the expressed mouse B2 bradykinin receptor; details: expressed mouse B2 receptor, 100 pM [3H]BK
T2 construct: The PCR product begins 99 bp upstream of the initiator methionine codon and ends 49 bp downstream of the stop codon; expressed in transfected cells; host or cells: COS-7 (transient), pcDNAI-Neo
T2 sequence (P32299 1-366 isoform P32299-2): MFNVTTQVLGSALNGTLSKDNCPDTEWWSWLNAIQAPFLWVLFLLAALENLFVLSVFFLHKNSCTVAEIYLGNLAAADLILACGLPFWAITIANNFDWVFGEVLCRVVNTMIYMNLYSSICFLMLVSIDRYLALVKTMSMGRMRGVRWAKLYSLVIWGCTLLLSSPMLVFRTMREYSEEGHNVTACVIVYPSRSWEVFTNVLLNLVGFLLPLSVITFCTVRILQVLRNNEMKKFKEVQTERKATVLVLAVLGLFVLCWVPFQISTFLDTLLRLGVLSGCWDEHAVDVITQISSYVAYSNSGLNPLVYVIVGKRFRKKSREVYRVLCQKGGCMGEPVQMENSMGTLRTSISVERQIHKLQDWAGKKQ
Procedure: Binding assays were then performed to determine receptor antagonist or agonist interaction. The assays utilized in the instant invention follow the method of Manning et al., J. Pharmacol. Exp. Ther., 237, 504-512 (1986). [^3 H]BK at various concentrations was incubated for 60 minutes at 25° C. with approximately 50ug membrane protein from COS-7 cells in a volume of 1 ml. The assay was terminated by filtration over Whatman GF/B filters presoaked for 3 hours in 0.1 % polyethyleneimine using a BRANDEL M-24 CELL […] (BRANDEL, Gaithersburg, Md.). The tubes were rinsed two times with 4 ml ice-cold […] and the filter bound radioactivity was quantitated by liquid scintillation counting. Nonspecific binding was determined by performing incubation in the presence of 1 uM BK and generally represents less than 5% of the total binding at 100pM ^3 H]BK. Competition binding experiments, in the presence of 100pM[^3 H]BK, were performed with varying concentrations of the test compound(s). The competition and saturation experiments were analyzed using the EBDA program of McPherson. See McPherson, G.A. J Pharmacol. Methods 14, 213-218 (1985).
To verify the pharmacological properties of the mouse bradykinin B2 receptor the coding sequence of the mouse B2 bradykinin receptor was isolated by PCR (Perkin Elmer/Cetus) using a Techne thermocycler with the template being the EcoR I by Hind III genomic fragment in pSP72 and the 5' primer 5'-[…]-3' (SEQ.ID.NO.:8) and the 3' primer 5'- […]-3' (SEQ.ID.NO.:9). The PCR product was subcloned into the Hind III and Xba I sites of the eukaryotic expression vector pcDNAI-Neo (Invitrogen). The PCR product begins 99 bp upstream of the initiator methionine codon and ends 49 bp downstream of the stop codon. The DNA sequence analysis using Sequenase (US Biochemical) of the subcloned PCR product confirmed that the sequence was identical to that in the original genomic fragment.

[6] = test system: mock transfected COS-7 cells; test: Binding of BK to membranes of mock transfected COS-7 cells; details: membranes from mock transfected COS-7 cells
Procedure: as §1, with “The final membrane pellet was resuspended in assay buffer (TES plus 0.1% protease free bovine serum albumin, 5 uM MK-422 (enalaprilat; Gross et al., 1981) and 140 ug/ml bacitracin using a motor-driven teflon-glass tissue homogenizer. Protein determination was performed by the method of Bradford using bovine IgG as the standard. See Bradford, M.A. Anal. Biochem. 72, 248-254 (1976).” left out
Binding assays were then performed to determine receptor antagonist or agonist interaction. […] The tubes were rinsed two times with 4 ml ice-cold […] and the filter bound radioactivity was quantitated by liquid scintillation counting. […] The competition and saturation experiments were analyzed using the EBDA program of McPherson. […]

[7] = test system: guinea pig ileum mucosa; details: nanomolar concentrations, serosal surface; cited from earlier work

In the case of RPPGFSPFR [BK], the “specificity of binding (rank order)” value [1] is given as “BK>lys-BK>met-lys-BK”, the “contraction of smooth muscle / muscle tone” value ([2]; musculotropic/postjunctional action) is given as “contracted the smooth muscle generating an increased muscle tone” and the “magnitude of the muscular response to electrically driven twitches” value ([2]; neurogenic/presynaptic effect) is given as “potentiated”. For the same sequence, the “activity of phosphatidylcholine-specific PLC” value [3] was “stimulates”, the “phospholipase C mediated InsP formation and PGE-2 synthesis” value [4] was “stimulated” and the affinity [5] was “high (subnanomolar) affinity”. The “BK specific binding sites” value [6] was “did not contain any detectable BK specific binding sites” and the “transepithelial potential difference (p.d.) and short circuit current (ISC)” value [7] was “rapidly increased”.

From patent publication US5750826A, “Bradykinin B2 receptor modified transgenic non-human animals” (Merck & Co., Inc., priority 1996, dated 1998)
